Test results as given in patent publication US4873225A, “1-n-(4-amino-3-fluoro-2-hydroxybutyryl)-kanamycins” (Zaidan Hojin Biseibutsu Kagaku Kenkyu Kai, priority 1987, dated 1989).
≈ marks a conversion by molar mass, not a printed value. Read-outs that look alike come from different tables or passages of the source.

Assays:
Assay in all cases: MIC, standard serial dilution method
Type in all cases: cell-based
Bacillus subtilis PCI219 = system: Bacillus subtilis PCI219
Protocol: (§1) Antibacterial activities of each of the abovementioned compounds of the general formula (I) according to this invention were determined by measuring their minimum growth inhibitory concentrations (MIC, mcg/ml) against various bacteria in accordance with a standard serial dilution method. The pH condition of the incubation medium where the MIC data were measured was set at pH 7, unless otherwise specifically indicated. For the sake of comparison, the antibacterial spectra of 1-N-{(S)-4-amino-2-hydroxybutyryl}kanamycin A (i.e., amikacin) and 1-N-{(S)-4-amino-2-hydroxybutyryl}-3,4-dideoxykanamycin B (i.e., habekacin) were also measured in the same manner.

[1] = system: Corynebacterium bovis 1810; conditions: Corynebacterium bovis, 1810, pH 7
Protocol: as §1

Escherichia coli JR 225 = conditions: JR225, pH 7
Protocol: as §1

[2] = system: Escherichia coli K-12 LA 290 R55; conditions: K12LA290R55, pH 7
Protocol: as §1

[3] = system: Escherichia coli K-12 ML 1629
Protocol: as §1

Escherichia coli K-12 = conditions: K12, pH 7
Protocol: as §1

[4] = system: Klebsiella pneumoniae 22 #3038
Protocol: as §1

Mycobacterium 607 = conditions: Mycobacterium, 607, pH 7
Protocol: as §1

Proteus rettgeri GN 311 = conditions: Providencia rettgeri, GN311, pH 7
Protocol: as §1

Providencia sp. Pv 16 = system: Providencia sp. Pv 16
Protocol: as §1

[5] = system: Pseudomonas aeruginosa A3
Protocol: as §1

[6] = system: Pseudomonas aeruginosa GN 315; conditions: GN315, pH 7
Protocol: as §1

Serratia marcescens = conditions: pH 7, read-out: MIC
Protocol: as §1

[7] = system: Staphylococcus aureus 209P
Protocol: as §1

[8] = system: Staphylococcus aureus Ap01
Protocol: as §1

Escherichia coli K-12 R5 = conditions: K12R5, pH 7
Protocol: as §1
Infectious diseases by Escherichia coli K-12 R5 tend to increase in recent days. The compounds of this invention are therefore important for the therapeutic treatment of bacterial infections.

[9] = system: Escherichia coli JR66/W677; conditions: for MIC: Escherichia coli
Protocol: as §1
(§2) (a) The antibacterial activities of the compounds of this invention are not decreased practically even under pH conditions of pH […] as compared to their antibacterial activities under neutral conditions of pH 7.

[10] = system: Pseudomonas aeruginosa TI 13; conditions: for MIC: Pseudomonas aeruginosa
Protocol: as §1, §2

[11] = JR66/W677, measured at pH 6, read-out: MIC
[12] = TI13, measured at pH 6, read-out: MIC

SMILES	MIC (Bacillus subtilis PCI219; PCI219, pH 7, read-out: MIC) [µg/mL]	MIC ([1]; read-out: MIC) [µg/mL]	MIC (Escherichia coli JR 225) [µg/mL]	MIC [2] [µg/mL]	MIC ([3]; K12ML1629, pH 7, read-out: MIC) [µg/mL]	MIC (Escherichia coli K-12) [µg/mL]	MIC ([4]; pH 7, read-out: MIC) [µg/mL]	MIC (Mycobacterium 607; read-out: MIC) [µg/mL]	MIC (Proteus rettgeri GN 311; read-out: MIC) [µg/mL]	MIC (Providencia sp. Pv 16; SP.PV16, pH 7, read-out: MIC) [µg/mL]	MIC ([5]; A3, pH 7, read-out: MIC) [µg/mL]	MIC [6] [µg/mL]	MIC (Serratia marcescens) [µg/mL]	MIC ([7]; pH 7, read-out: MIC) [µg/mL]	MIC ([8]; AP01, pH 7, read-out: MIC) [µg/mL]	MIC (Escherichia coli K-12 R5) [µg/mL]	MIC ([9]; JR66/W677, pH 7, read-out: MIC) [µg/mL]	MIC [9, 11] [µg/mL]	MIC ([10]; TI13, pH 7, read-out: MIC) [µg/mL]	MIC [10, 12] [µg/mL]	further results
NC[C@@H]1CC[C@@H](N)[C@@H](O[C@H]2[C@H](O)[C@@H](O[C@H]3O[C@H](CO)[C@@H](O)[C@H](N)[C@H]3O)[C@H](NC(=O)[C@@H](O)[C@H](F)CN)C[C@@H]2N)O1 [Invention Compound No. 7, 1-N-{(2R,3R)-4-Amino-3-fluoro-2-hydroxybutyryl}-3',4'-dideoxykanamycin B]	< 0.2	< 0.2	0.78 (≈ 1.37 µM)	0.39 (≈ 0.683 µM)	0.78 (≈ 1.37 µM)	< 0.2	0.78 (≈ 1.37 µM)	0.78 (≈ 1.37 µM)	< 0.2	0.78 (≈ 1.37 µM)	0.39 (≈ 0.683 µM)	3.12 (≈ 5.47 µM)	3.12 (≈ 5.47 µM)	< 0.2	0.78 (≈ 1.37 µM)	3.12 (≈ 5.47 µM)	0.78 (≈ 1.37 µM)	1.56 (≈ 2.73 µM)	0.78 (≈ 1.37 µM)	1.56 (≈ 2.73 µM)	
NC[C@@H](F)[C@H](O)C(=O)N[C@@H]1C[C@H](N)[C@@H](O[C@H]2O[C@H](CN)[C@@H](O)[C@H](O)[C@H]2O)[C@H](F)[C@H]1O[C@H]1O[C@H](CO)[C@@H](O)[C@H](N)[C@H]1O [Invention Compound No. 4, 1-N-{(2R,3R)-4-Amino-3-fluoro-2-hydroxybutyryl}-5-deoxy-5-fluorokanamycin A]	3.12 (≈ 5.15 µM)	0.39 (≈ 0.644 µM)	0.39 (≈ 0.644 µM)	0.78 (≈ 1.29 µM)	0.39 (≈ 0.644 µM)	0.78 (≈ 1.29 µM)	3.12 (≈ 5.15 µM)	3.12 (≈ 5.15 µM)	1.56 (≈ 2.58 µM)	1.56 (≈ 2.58 µM)	1.56 (≈ 2.58 µM)	25 (≈ 41.3 µM)	6.25 (≈ 10.3 µM)	1.56 (≈ 2.58 µM)	6.25 (≈ 10.3 µM)	6.25 (≈ 10.3 µM)	1.56 (≈ 2.58 µM)	3.12 (≈ 5.15 µM)	3.12 (≈ 5.15 µM)	3.12 (≈ 5.15 µM)	
NC[C@@H](F)[C@H](O)C(=O)N[C@@H]1C[C@H](N)[C@@H](O[C@H]2O[C@H](CN)[C@@H](O)[C@H](O)[C@H]2O)[C@H](O)[C@H]1O[C@H]1O[C@H](CO)[C@@H](O)[C@H](N)[C@H]1O [Invention Compound No. 1, 1-N-{(2R,3R)-4-Amino-3-fluoro-2-hydroxybutyryl}-kanamycin A]	0.78 (≈ 1.29 µM)	0.78 (≈ 1.29 µM)	0.78 (≈ 1.29 µM)	1.56 (≈ 2.58 µM)	1.56 (≈ 2.58 µM)	0.39 (≈ 0.646 µM)	3.12 (≈ 5.17 µM)	1.56 (≈ 2.58 µM)	0.39 (≈ 0.646 µM)	1.56 (≈ 2.58 µM)	0.78 (≈ 1.29 µM)	25 (≈ 41.4 µM)	3.12 (≈ 5.17 µM)	1.56 (≈ 2.58 µM)	6.25 (≈ 10.4 µM)	12.5 (≈ 20.7 µM)	1.56 (≈ 2.58 µM)	6.25 (≈ 10.4 µM)	3.12 (≈ 5.17 µM)	3.12 (≈ 5.17 µM)	
NCC[C@H](O)C(=O)N[C@@H]1C[C@H](N)[C@@H](O[C@H]2O[C@H](CN)[C@@H](O)[C@H](O)[C@H]2O)[C@H](O)[C@H]1O[C@H]1O[C@H](CO)[C@@H](O)[C@H](N)[C@H]1O [Amikacin, 1-N-{(S)-4-amino-2-hydroxybutyryl}kanamycin A, reference compound]			0.78 (≈ 1.33 µM)	1.56 (≈ 2.66 µM)		0.78 (≈ 1.33 µM)						25 (≈ 42.7 µM)	6.25 (≈ 10.7 µM)			25 (≈ 42.7 µM)		25 (≈ 42.7 µM)		12.5 (≈ 21.3 µM)	MIC (Bacillus subtilis PCI219; PCI219, pH 7): 1.56 µg/mL (≈ 2.66 µM); MIC [1]: 1.56 µg/mL (≈ 2.66 µM); MIC ([3]; K12ML1629, pH 7): 1.56 µg/mL (≈ 2.66 µM); MIC ([4]; pH 7): 3.12 µg/mL (≈ 5.33 µM); MIC (Mycobacterium 607): 1.56 µg/mL (≈ 2.66 µM); MIC (Proteus rettgeri GN 311): 1.56 µg/mL (≈ 2.66 µM); MIC (Providencia sp. Pv 16; SP.PV16, pH 7): 1.56 µg/mL (≈ 2.66 µM); MIC ([5]; A3, pH 7): 1.56 µg/mL (≈ 2.66 µM); MIC ([7]; pH 7): 1.56 µg/mL (≈ 2.66 µM); MIC ([8]; AP01, pH 7): 3.12 µg/mL (≈ 5.33 µM); MIC ([9]; JR66/W677, pH 7): 3.12 µg/mL (≈ 5.33 µM); antibacterial activity (MIC) at pH 6 as compared to pH 7 ([9]; pH 6 vs pH 7): reduced considerably at pH 6; MIC ([10]; TI13, pH 7): 3.12 µg/mL (≈ 5.33 µM); antibacterial activity (MIC) at pH 6 as compared to pH 7 ([10]; pH 6 vs pH 7): reduced considerably at pH 6
NC[C@@H](F)[C@H](O)C(=O)N[C@@H]1C[C@H](N)[C@@H](O[C@H]2O[C@H](CN)[C@@H](O)[C@H](O)[C@H]2N)[C@H](O)[C@H]1O[C@H]1O[C@H](CO)[C@@H](O)[C@H](N)[C@H]1O [Invention Compound No. 5, 1-N-{(2R,3R)-4-Amino-3-fluoro-2-hydroxybutyryl}-kanamycin B]	1.56 (≈ 2.59 µM)	0.39 (≈ 0.647 µM)	0.39 (≈ 0.647 µM)	0.78 (≈ 1.29 µM)	0.78 (≈ 1.29 µM)	0.2 (≈ 0.332 µM)	3.12 (≈ 5.18 µM)	12.5 (≈ 20.7 µM)	0.39 (≈ 0.647 µM)	1.56 (≈ 2.59 µM)	0.78 (≈ 1.29 µM)	6.25 (≈ 10.4 µM)	6.25 (≈ 10.4 µM)	0.78 (≈ 1.29 µM)	6.25 (≈ 10.4 µM)	3.12 (≈ 5.18 µM)	0.78 (≈ 1.29 µM)	3.12 (≈ 5.18 µM)	1.56 (≈ 2.59 µM)	3.12 (≈ 5.18 µM)	
